Literature values, collected in patent US6372197B1, “Methods and compositions using norastemizole in combination with leukotriene inhibitors” (Sepracor Inc., priority 1998, dated 2002).
Read-outs that look alike come from different tables or passages of the source.

How the values were obtained:
[1] = system: leukotriene (LTH4, LTC4, LTD4, and LTE4) formation; conditions: in vitro
LTB4 formation = conditions: ex vivo, several species
[2] = system: leukotriene-dependent smooth muscle contractions; conditions: in vitro, guinea pig airways
[3] = system: leukotriene-dependent smooth muscle contractions; conditions: in vitro, human airways
[4] = 373 patients
[5] = in some patients
[6] = in vivo
[7] = system: contractile activity of three leukotrienes; conditions: in vitro, conducting airway smooth muscle from laboratory animals
[8] = system: contractile activity of three leukotrienes; conditions: in vitro, conducting airway smooth muscle from humans
[9] = system: LTD4-induced increases in cutaneous vascular permeability; conditions: in vivo
[10] = system: LTD4-induced influx of eosinophils; conditions: in vivo

SMILES: CC(c1cc2ccccc2s1)N(O)C(N)=O (racemic) [Zileuton, (±)-1-(1-Benso[b]thien-2-ylethyl)-1-hydroxyurea]
- inhibition of leukotriene (LTH4, LTC4, LTD4, and LTE4) formation [1]: inhibit
- inhibition of LTB4 formation (LTB4 formation): inhibitor
- inhibition of leukotriene-dependent smooth muscle contractions [2]: inhibits
- inhibition of leukotriene-dependent smooth muscle contractions [3]: inhibits
- efficacy ([4]; 400 mg): failed to do so
- efficacy ([4]; 600 mg four times daily): required to provide efficacy
- adverse effects reported [5]: headache, pain, asthenia, dyspepsia, nausea, and myalgia

SMILES: COc1ccc(CCN2CCC(Nc3nc4ccccc4n3Cc3ccc(F)cc3)CC2)cc1 [Astemizole]
- absorption [6]: well absorbed
- metabolism [6]: extensively metabolized

SMILES: COc1cc(C(=O)NS(=O)(=O)c2ccccc2C)ccc1Cc1cn(C)c2ccc(NC(=O)OC3CCCC3)cc12 [Zafirlukast, 4-(5-cyclopentyloxy-carbonylamino-1-methyl-indol-8-ylmethyl)-3-methoxy-N-o-tolylsulfonylbenzamide]
- adverse effects reported [5]: headache, infection, nausea, diarrhea, pain, asthenia, abdominal pain, dizziness, myalgia, fever, vomiting, SGPT elevation, and dyspepsia
- antagonism of contractile activity of three leukotrienes [7]: antagonized
- antagonism of contractile activity of three leukotrienes [8]: antagonized
- intradermal LTD4-induced increases in cutaneous vascular permeability [9]: prevented
- inhaled LTD4-induced influx of eosinophils into animal lungs [10]: inhibited
